Measurements published in publication PMC5384220 (Nature Communications, 2017).
Entries after “also recorded” stand apart in the source; their conditions may differ. Blank lines part the entries; values can stand above or below the compound they belong to. Where a SMILES comes first, the peptide text is derived from it. Bridges are numbered along the chain shown (N, C = ends). Where no end group is shown, it is not given here. [ ]: non-standard residue; d: D form. Lys(Me3) = C[N+](C)(C)CCCC[C@H](N)C(=O)O; Phe(4-F) = N[C@@H](Cc1ccc(F)cc1)C(=O)O; NMeV = CN[C@H](C(=O)O)C(C)C; NMeC = CN[C@@H](CS)C(=O)O

Key:
[1] = system: KDM4A; set-up: method as in earlier work; details: ref 4 (King et al., supplementary references); read-out: EC50 KDM4A inhibition in cells; cited from earlier work
[2] = target: T1, KDM4A (Homo sapiens, UniProt O75164); assay: AlphaScreen demethylase activity assay, KDM4A; format: biochemical; details: for IC50: KDM4A 1-359
T1 construct: KDM4A 1-359 E.coli; Hexa-His (N); made in house; host or cells: E. coli
T1 sequence (O75164 1-359): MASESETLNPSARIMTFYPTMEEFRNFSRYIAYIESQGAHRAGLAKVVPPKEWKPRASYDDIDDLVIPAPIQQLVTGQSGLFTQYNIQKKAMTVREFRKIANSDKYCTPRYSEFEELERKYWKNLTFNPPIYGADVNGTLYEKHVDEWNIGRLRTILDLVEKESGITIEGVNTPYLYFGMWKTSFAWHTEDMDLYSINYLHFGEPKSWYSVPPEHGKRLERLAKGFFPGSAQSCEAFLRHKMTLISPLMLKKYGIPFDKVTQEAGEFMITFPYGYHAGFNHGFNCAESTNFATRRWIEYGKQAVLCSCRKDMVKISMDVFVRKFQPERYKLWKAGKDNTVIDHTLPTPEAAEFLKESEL
Experimental: IC50 values for KDM2–6 were measured using an AlphaScreen assay as described. The appropriate KDM (5 μl) was pre-incubated with an inhibitor (0.1 μl in DMSO) or DMSO for 15 min before the addition of 5 μl mixture of biotinylated peptide substrates, 2OG, ferrous ammonium sulfate (1–10 μM final) and ascorbate (100 μM final) to initiate the demethylation reaction. The reaction was quenched with 5 μl of 30 mM EDTA at predetermined reaction times for each enzyme (initial rate). Demethylated product was detected by addition of 5 μl of AlphaScreen donor and acceptor beads (AlphaScreen General IgG Detection Kit, 0.02 mg ml^−1 final each) pre-incubated with antibody. The plates were read after 1 h incubation in a BMG Labtech Pherastar FS plate reader. Data were normalized to a no enzyme control and IC50 values were calculated using nonlinear regression curve fits using GraphPad Prism. Assay buffer (50 mM HEPES pH 7.5, BSA (0.1% w/v) and Tween-20 (0.01% v/v)) was used throughout, except for dilution of stock ferrous ammonium sulfate solutions where water was used. The enzyme, substrate and antibody concentrations used are described in Supplementary Table 3. A fluorescence-based LSD1 inhibitor screening assay kit (Cayman, 700120) was used for KDM1/LSD1 assay. Assays for prolyl hydroxylase domain 2 and factor inhibiting HIF using matrix-assisted laser desorption/ionization–time of flight MS were performed as previously described. Prism 5.0 (GraphPad) was used to generate and to fit dose–response curves. IC50 values were determined by plotting percentage inhibition versus compound concentration relative to positive (vehicle) and negative (no enzyme) controls, using normalized dose–response (variable slope) fit. The reported values are the mean of multiple experiments (n≥3). The formaldehyde dehydrogenase coupled KDM assay was used to determine the mode of inhibition, using 0.5 μM His-KDM4A1–359. Prism 5.0 (GraphPad) was used to fit in mix-mode inhibition, to determine the kinetic parameters. Binding constants for CPs and H3(1–15)K9me3 were measured using biolayer interferometry (OctetRed 384, ForteBio) in buffer (50 mM HEPES (pH 7.5), 150 mM NaCl, 10 μM ammonium iron(II) sulphate). His-KDM4A1–359-Bio (70 nM) was immobilized onto super streptavidin biosensor and subjected to different peptide concentrations in buffer. Data analysis was performed using ForteBio Data Aalysis (v6.4).
Construct Expression [E] / nM [2OG] / µM [Fe(II)] / µM Peptide / nM Peptide sequence Antibody Source […]
Supplementary Table 3. AlphaScreen assay parameters for 2OG oxygenases used for this study. The table was dapted from 10. Assays were performed at 2OG concentration near the 2OG Km values determined experimentally.11 All enzymes were expressed and purified as described.10-12

[3] = target: T2, His-KDM4A1-359-Bio (Homo sapiens, UniProt O75164); assay: Biolayer interferometry binding to KDM4A
T2 construct: KDM4A protein (residues 1-359) was cloned into the pNIC-Bio3 plasmid, which incorporates a C-terminal AviTag; made in house; host or cells: E. coli BL21(DE3)Rosetta co-transfected with pCDF-BirA
T2 sequence (O75164 1-359): T1 sequence (O75164 1-359)

[4] = system: H3K9me3/H3K36me3 in HeLa cells; assay: Immunofluorescence of global histone methylation, 72 h dosing; format: cell-based; details: 72 h treatment
Description: Supplementary Figure 12. Immunofluorescence analysis of global histone methylation levels after 72hr dosing of cyclic peptides in HeLa cells. (a)-(c) Immunofluorescence analysis of HeLa cells dosed with cyclic peptides for 72 hrs. Maximum intensity projected images of 3D confocal z-stacks showing nuclei stained with […]
DMSO and CP2 treated cells. Bar represents 50µm. Global H3K9me3 (d) and associated nuclei count for the […]
staining, (h) global H3K4me3 and (i) global H3K27me3 staining. An increase in fluorescence intensity, […]
over certain concentration ranges. Average +/- s.e.m (n > 100 cells) are shown except at concentrations of […]
A generic 2OG oxygenase inhibitor 5-carboxy-8-
Immunofluorescence (IF) assay […]
with 0.5% FBS and 1% Pen-Strep. […]
grade plate (Becton Dickinson) and left overnight to adhere. Cells were dosed with cyclic […]
After 30min blocking (3% FBS in […]
three times after each incubation. […]
Image acquisition and analysis […]
image immunostained cells in a 96-well plate configuration. For each well, the system […]
The average intensity for each […]
analysed using GraphPad Prism 5. […]

[5] = target: T3, KDM4A1-359 (Homo sapiens, UniProt O75164); assay: MALDI-TOF MS demethylation of CP2 variants as substrates; format: biochemical; details: KDM4A 2 μM, peptide 10 μM, 2OG 100 μM, 2 h 37 °C
T3 construct: Hexa-His (N); made in house
T3 sequence (O75164 1-359): T1 sequence (O75164 1-359)
Experimental: Figure 3 KDM4A can demethylate methylated lysine and arginine containing non-histone sequences. […] The reaction product was analysed using matrix-assisted laser desorption/ionization–time of flight MS. Reactions containing enzymes are in red, no enzyme peptide controls are in black.

[6] = target: T4, KDM4C (Homo sapiens, UniProt Q9H3R0); assay: AlphaScreen demethylase activity assay, KDM4C; format: biochemical
T4 construct: KDM4C 1-366 E.coli; made in house; host or cells: E. coli
T4 sequence (Q9H3R0 1-366): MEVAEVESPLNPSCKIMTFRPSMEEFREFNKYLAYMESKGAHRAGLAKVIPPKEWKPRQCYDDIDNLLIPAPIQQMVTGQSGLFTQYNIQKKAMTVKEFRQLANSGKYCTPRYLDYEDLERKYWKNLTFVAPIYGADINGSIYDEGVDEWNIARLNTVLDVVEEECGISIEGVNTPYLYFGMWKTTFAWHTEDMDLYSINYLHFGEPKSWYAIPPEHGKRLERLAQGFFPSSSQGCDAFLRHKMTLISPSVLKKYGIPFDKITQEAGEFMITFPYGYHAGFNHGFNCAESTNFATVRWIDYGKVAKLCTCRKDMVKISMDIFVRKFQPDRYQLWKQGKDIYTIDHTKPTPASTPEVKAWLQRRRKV
Experimental: IC50 values for KDM2–6 were measured using an AlphaScreen assay as described. The appropriate KDM (5 μl) was pre-incubated with an inhibitor (0.1 μl in DMSO) or DMSO for 15 min before the addition of 5 μl mixture of biotinylated peptide substrates, 2OG, ferrous ammonium sulfate (1–10 μM final) and ascorbate (100 μM final) to initiate the demethylation reaction. The reaction was quenched with 5 μl of 30 mM EDTA at predetermined reaction times for each enzyme (initial rate). Demethylated product was detected by addition of 5 μl of AlphaScreen donor and acceptor beads (AlphaScreen General IgG Detection Kit, 0.02 mg ml^−1 final each) pre-incubated with antibody. The plates were read after 1 h incubation in a BMG Labtech Pherastar FS plate reader. Data were normalized to a no enzyme control and IC50 values were calculated using nonlinear regression curve fits using GraphPad Prism. […] A fluorescence-based LSD1 inhibitor screening assay kit (Cayman, 700120) was used for KDM1/LSD1 assay. […] IC50 values were determined by plotting percentage inhibition versus compound concentration relative to positive (vehicle) and negative (no enzyme) controls, using normalized dose–response (variable slope) fit. […] Binding constants for CPs and H3(1–15)K9me3 were measured using biolayer interferometry (OctetRed 384, ForteBio) in buffer (50 mM HEPES (pH 7.5), 150 mM NaCl, 10 μM ammonium iron(II) sulphate). […]

[7] = system: FLAG-KDM4A in HeLa cells; assay: Immunofluorescence of H3K9me3 in HeLa cells overexpressing FLAG-KDM4A, 24 h dosing

- IC50 ([2]; AlphaScreen): > 100 µM
- IC50 [6]: > 100 µM
Compound: CC[C@H](C)[C@@H]1NC(=O)[C@H](C)NC(=O)[C@@H]2CCCN2C(=O)[C@H]([C@@H](C)O)NC(=O)[C@H](Cc2ccc(O)cc2)NC(=O)[C@H](Cc2ccccc2)NC(=O)[C@H](Cc2c[nH]c3ccccc23)NC(=O)[C@H](Cc2ccc(O)cc2)NC(=O)CSC[C@@H](C(N)=O)NC(=O)[C@H](Cc2c[nH]c3ccccc23)NC(=O)[C@H](CCCNC(=N)N)NC1=O [CP3] ({CH2CO}-YWFYTPAIRWC-NH2; thioether N-11)

- Demethylation of the peptide by KDM4A (substrate) [5]: efficiently demethylated
- Demethylation of the peptide by KDM4A (substrate) ([5]; listed as CP2(R6Kme3)): substrates of KDM4A
Compound: DYVYNT[Lys(Me3)]SGWRWYTC [R6Kme3]

- IC50 ([2]; AlphaScreen): > 100 µM
Compound: CC[C@H](C)[C@@H]1NC(=O)CNC(=O)[C@H](CC(C)C)NC(=O)[C@H](Cc2c[nH]c3ccccc23)NC(=O)[C@H](Cc2ccc(O)cc2)NC(=O)[C@@H](Cc2ccc(O)cc2)NC(=O)CSC[C@@H](C(N)=O)NC(=O)[C@H](Cc2ccc(O)cc2)NC(=O)[C@H](CO)NC(=O)[C@H](CCCNC(=N)N)NC(=O)[C@@H]2CCCN2C(=O)[C@H]([C@@H](C)O)NC1=O [CP1] ({CH2CO}-[dY]YWLGITPRSYC-NH2; thioether N-12)

- KDM4A IC50 relative to CP2 ([2]; AlphaScreen): four fold higher
Compound: DYVYNTRSGWRWYTC [Linear CP2]

- IC50 [6]: > 10 µM
Compound: CC(C)[C@H]1C(=O)N[C@@H](Cc2ccc(O)cc2)C(=O)N[C@@H](CC(N)=O)C(=O)N[C@@H]([C@@H](C)O)C(=O)N[C@@H](C)C(=O)N[C@@H](CO)C(=O)N[C@H](C)C(=O)N[C@@H](Cc2c[nH]c3ccccc23)C(=O)N[C@@H](CCCNC(=N)N)C(=O)N[C@@H](Cc2c[nH]c3ccccc23)C(=O)N[C@@H](Cc2ccc(F)cc2)C(=O)N2CCC[C@H]2C(=O)N(C)[C@H](C(N)=O)CSCC(=O)N[C@H](Cc2ccc(O)cc2)C(=O)N1C [CP2.3(R6A)] ({CH2CO}-[dY][NMeV]YNTAS[dA]WRW[Phe(4-F)]P[NMeC]-NH2; thioether N-14)

Continued, compound first:

Compound: LYLKSRRSGLTWIPC [CP4]
- Intra-subfamily selectivity KDM4A-C over KDM4D-E ([2]; ratio of IC50 values): > 100 fold
- Selectivity by IC50 for KDM4 over other JmjC-demethylase families, PHD2, FIH and KDM1A ([2]; ratio of IC50 values): > 160 fold
- KDM4A Binding kdiss [3]: 0.000784 s⁻¹
- KDM4A Binding kon [3]: 21800 M⁻¹ s⁻¹

Compound: DY(meV)YNTRSDAWRWY(meT)(meC) [CP2.2]
- Inhibitor range with increases in nuclear H3K9me3/H3K36me3 staining [4]: 10 to 20 µM

Compound: LYVYNT(Rme2a)SGWRWYTC (not fully specified (N-terminus, bridges)) [CP2(R6me2a)]
- Demethylation of the peptide by KDM4A (substrate) [5]: demethylate; also recorded: substrates of KDM4A

Compound: DY(meV)YNTRSDAWRW(4FF)P(meC) [CP2.3]
- Inhibitor range with increases in nuclear H3K9me3/H3K36me3 staining [4]: 10 to 20 µM

Compound: LYSKYTQSGVRWVC [CP5]
- Selectivity by IC50 for KDM4 over other JmjC-demethylase families, PHD2, FIH and KDM1A ([2]; ratio of IC50 values): > 160 fold
- KDM4A Binding kdiss [3]: 0.0107 s⁻¹
- KDM4A Binding kon [3]: 62000 M⁻¹ s⁻¹

Compound: DYVYNTRSDAWRWYT(meC) [CP2.1]
- Inhibitor range with increases in nuclear H3K9me3/H3K36me3 staining [4]: 10 to 20 µM

Compound: DYVYNTRSGWRWYTC-BRRRRRRRRR [CP2(polyR)]
- H3K9me3 levels in cells overexpressing FLAG-KDM4A (cellular KDM4A demethylase activity) [7]: Loss of H3K9me3 staining; also recorded: no inhibition of cellular KDM4A demethylase activity
